Experimental data from US20250163055A1, “POLYMORPH OF JAK TYROSINE KINASE INHIBITOR AND PREPARATION METHOD THEREFOR” (Prime Gene Therapeutics Co., Ltd., priority 2022, published 2025).
Values after ≈ are worked out from the molar mass of the structure shown. “Also recorded” adds a separate entry of the source. Like-named read-outs stand apart in the source and are kept apart here.

Assays:
[1] = Drug concentration in the skin after topical administration to skin for 24 hours; type: in vivo, rat; details: topical gel
Method: The solid powders of Examples 1 and 6, and the hydrogel preparations thereof were taken, and the PK values of rats administered by oral gavage and transdermal application were respectively determined. Male SD rats were divided into groups, 3 rats in each group, and were administered the compounds obtained in Examples 1 and 6 by oral gavage (oral group). administered Example 1 intravenously (intravenous group), and administered the gel preparations prepared from the compounds of Examples 1 and 6 topically to the skin (transdermal group). Animals were fasted overnight before the experiment, and the fasting time ranged from 10 hours before administration to 4 hours after administration. Blood was collected at 0.25, 0.5, 1, 2, 4, 6, 8 and 24 hours after administration in oral group and transdermal group, and at 0.083, 0.25, 0.5, 1, 2, 4, 6, 8 and 24 hours after administration in intravenous group. […] Plasma was extracted by protein precipitation method, and the extract was analyzed by LC/MS/MS. The transdermal group was administered for 24 hours and the skin at the administration site was peeled off after washing off the epidermal drug, and the drug content in the skin was analyzed by LC/MS/MS after homogenization.

[2] = Pharmacokinetic experiment in male SD rats (oral, intravenous, transdermal); type: in vivo, rat
Method: The solid powders of Examples 1 and 6, and the hydrogel preparations thereof were taken, and the PK values of rats administered by oral gavage and transdermal application were respectively determined. Male SD rats were divided into groups, 3 rats in each group, and were administered the compounds obtained in Examples 1 and 6 by oral gavage (oral group). administered Example 1 intravenously (intravenous group), and administered the gel preparations prepared from the compounds of Examples 1 and 6 topically to the skin (transdermal group). Animals were fasted overnight before the experiment, and the fasting time ranged from 10 hours before administration to 4 hours after administration. Blood was collected at 0.25, 0.5, 1, 2, 4, 6, 8 and 24 hours after administration in oral group and transdermal group, and at 0.083, 0.25, 0.5, 1, 2, 4, 6, 8 and 24 hours after administration in intravenous group. After being anesthetized with isoflurane using a small animal anesthesia machine, 0.3 mL of whole blood was collected through the fundus venous plexus and placed in a heparin anticoagulant tube. The blood samples were centrifuged at 4° C. and 4000 rpm for 5 min, and plasma was transferred to a centrifuge tube and placed at −80° C. until analysis. Plasma was extracted by protein precipitation method, and the extract was analyzed by LC/MS/MS. The transdermal group was administered for 24 hours and the skin at the administration site was peeled off after washing off the epidermal drug, and the drug content in the skin was analyzed by LC/MS/MS after homogenization.

[3] = Transdermal test of gel preparations (transdermal rate); type: in vitro ADME; details: gel preparation; receiving medium 5.0% Tween 80, pH 5.5 phosphate
From the text: Take the crystal obtained in Examples 1 or 6 and prepare it into gel preparation (the process for preparing the gel preparation can be: after stirring PEG400, propylene glycol, glycerin, ethanol and the crystal of Example 1 or 6, mix with EDTA aqueous solution, add in the swelled carbomer aqueous solution, adjust pH to be 6 with 10% triethanolamine solution, to obtain the gel). Measure respective transdermal rate (receiving medium 5.0% Tween 80, pH 5.5 phosphate).

[4] = Long-term (24-months) stability of crystal forms; type: physicochemical; details: for stability of the crystal form (result in words): long-term stability investigation, summary; for Appearance / Content / Crystal Form / Loss on Drying / Related Substances, Most Unknown Impurity / Related Substances, Total Impurities: long-term stability
From the text: The crystals prepared in examples 1, 3 and 6 were selected, and the stability of the crystal forms 1, IIa and IIb was investigated in accordance with the stability research guidelines issued by the National Medical Product Administration. The crystals were packed in pharmaceutical low-density polyethylene bags, and 24 months long-term stability was investigated.

[5] = Solubility of crystal forms in 20% propylene glycol at 32° C. over time; type: physicochemical; details: aqueous with cosolvent or surfactant or cyclodextrin, thermodynamic from solid
From the text: (§1) Solubility Investigation of Different Crystal Forms

[6] = Solubility measurement at different pH (37° C., 24 h); type: physicochemical; details: for solubility at 24 h: 37 °C, thermodynamic from solid, read-out: solubility, concentration
From the text: as §1

## CC(C)S(=O)(=O)N1CC(CC#N)(n2cc(-c3ncnc4[nH]ccc34)c(N)n2)C1 [Example 6, 2-{3-[3-amino-4-(7H-pyrrolo[2,3-d]pyrimidin-4-yl)-1H-pyrazol-1-yl]-1-(isopropylsulfonyl)azetidin-3-yl}acetonitrile crystal form IIb]
[1]
  drug concentration retained in animal skin relative to crystal form I: up to 7 times
[2]; oral group (gavage)
  AUC(0-inf): 537 ng·h/mL
  Cmax: 114 ng/mL
  F: 22%
  T1/2: 3.40 h
  Tmax: 3.17 h
[3]
  transdermal performance / transdermal absorption (result in words): inferior to crystal form I in transdermal absorption
[4]
  stability of the crystal form (result in words): better chemical stability; also recorded: good stability
[4]; 0 month
  Appearance: Off-white
  Content: 99.7%
  Crystal Form: IIb
  Loss on Drying: 0.36%
  Related Substances, Most Unknown Impurity: 0.07%
  Related Substances, Total Impurities: 0.38%
[4]; 3 months
  Appearance: Off-white
  Content: 99.7%
  Crystal Form: IIb
  Loss on Drying: 0.36%
  Related Substances, Most Unknown Impurity: 0.08%
  Related Substances, Total Impurities: 0.38%
[4]; 6 months
  Appearance: Off-white
  Content: 99.6%
  Crystal Form: IIb
  Loss on Drying: 0.39%
  Related Substances, Most Unknown Impurity: 0.08%
  Related Substances, Total Impurities: 0.37%
[4]; 9 months
  Appearance: Off-white
  Content: 99.5%
  Crystal Form: IIb
  Loss on Drying: 0.34%
  Related Substances, Most Unknown Impurity: 0.08%
  Related Substances, Total Impurities: 0.38%
[4]; 12 months
  Appearance: Off-white
  Content: 99.6%
  Crystal Form: IIb
  Loss on Drying: 0.30%
  Related Substances, Most Unknown Impurity: 0.07%
  Related Substances, Total Impurities: 0.37%
[4]; 18 months
  Appearance: Off-white
  Content: 99.6%
  Crystal Form: IIb
  Loss on Drying: 0.31%
  Related Substances, Most Unknown Impurity: 0.07%
  Related Substances, Total Impurities: 0.39%
[4]; 24 months
  Appearance: Off-white
  Content: 99.7%
  Crystal Form: IIb
  Loss on Drying: 0.32%
  Related Substances, Most Unknown Impurity: 0.08%
  Related Substances, Total Impurities: 0.39%

## CC(C)S(=O)(=O)N1CC(CC#N)(n2cc(-c3ncnc4[nH]ccc34)c(N)n2)C1 [Example 1, 2-{3-[3-amino-4-(7H-pyrrolo[2,3-d]pyrimidin-4-yl)-1H-pyrazol-1-yl]-1-(isopropylsulfonyl)azetidin-3-yl}acetonitrile crystal form I]
[2]; male, SD, rat, plasma, iv, intravenous group
  half-life: 2.49 h
[2]; male, SD, rat, plasma, iv, intravenous group, read-out: AUC0-inf
  AUC(0-inf): 496 ng·h/mL
[2]; male, SD, rat, plasma, po, oral group (gavage)
  half-life: 5.33 h
[2]; male, SD, rat, plasma, po, oral group (gavage), read-out: AUC0-inf
  AUC(0-inf): 941 ng·h/mL
[2]; male, SD, rat, plasma, po, oral group (gavage), read-out: Cmax
  Cmax: 111 ng/mL
[2]; male, SD, rat, plasma, po, oral group (gavage), read-out: Tmax
  Tmax: 2.67 h
[2]; oral group (gavage)
  F: 37%
[2]; rat, plasma, intravenous group
  clearance: 69.2 mL/min/kg
[2]; rat, plasma, intravenous group, read-out: Vss
  Vd: 4.93 L/kg
[3]
  transdermal performance / transdermal absorption (result in words): better transdermal performance
[5]
  solubility at 18 h: 20.2 µg/mL (≈ 50.4 µM)
[4]; listed as Crystal form I
  stability of the crystal form (result in words): good stability
[4]; listed as crystal form I
  stability of the crystal form (result in words): better chemical stability
[4]; 0 month
  Appearance: Off-white powder
  Content: 99.9%
  Loss on Drying: 0.08%
  Related Substances, Most Unknown Impurity: 0.17%
  Related Substances, Total Impurities: 0.58%
[4]; 3 months
  Appearance: Off-white powder
  Content: 100.1%
  Loss on Drying: 0.06%
  Related Substances, Most Unknown Impurity: 0.16%
  Related Substances, Total Impurities: 0.57%
[4]; 6 months
  Appearance: Off-white powder
  Content: 100.0%
  Loss on Drying: 0.08%
  Related Substances, Most Unknown Impurity: 0.17%
  Related Substances, Total Impurities: 0.57%
[4]; 9 months
  Appearance: Off-white powder
  Content: 99.8%
  Loss on Drying: 0.11%
  Related Substances, Most Unknown Impurity: 0.17%
  Related Substances, Total Impurities: 0.57%
[4]; 12 months
  Appearance: Off-white powder
  Content: 99.9%
  Loss on Drying: 0.09%
  Related Substances, Most Unknown Impurity: 0.17%
  Related Substances, Total Impurities: 0.55%
[4]; 18 months
  Appearance: Off-white powder
  Content: 99.7%
  Loss on Drying: 0.12%
  Related Substances, Most Unknown Impurity: 0.18%
  Related Substances, Total Impurities: 0.62%
[4]; 24 months
  Appearance: Off-white powder
  Content: 99.8%
  Loss on Drying: 0.10%
  Related Substances, Most Unknown Impurity: 0.16%
  Related Substances, Total Impurities: 0.59%
[6]; pH 6.8, aqueous buffer, pH 6.8, 37° C.
  solubility at 24 h: 1.2 µg/mL (≈ 3 µM)
[6]; pH 7, aqueous buffer, pH 7.0, 37° C.
  solubility at 24 h: 1.3 µg/mL (≈ 3.25 µM)
[6]; pH 8, aqueous buffer, pH 8.0, 37° C.
  solubility at 24 h: 1.2 µg/mL (≈ 3 µM)
[6]; summary
  solubility compared with crystal form IIb (result in words): higher solubility and oral bioavailability than crystal form IIb
